In ChEMBL document CHEMBL4041532, “Zinc-Metalloproteinase Inhibitors: Evaluation of the Complex Role Played by the Zinc-Binding Group on Potency and Selectivity” (J Med Chem, 2017) one finds Ratio Ki, Ki and Activity data, which are given here for three molecules.

Active and inactive are the calls of the source. The calls are words filed in the database; no cut-off is given here.

As usually defined, the Ki is a dissociation constant, usually derived from enzyme kinetics or from competition with a known ligand.

The target of assay [1] is Macrophage metalloelastase (Homo sapiens) (UniProt P39900). In words: Ratio of Ki for human MMP12 catalytic domain (Met105 to Lys263 residues) at pH 9.5 to Ki for human MMP12 catalytic domain (Met105 to Lys263 residues) at pH 6.
Chain of Macrophage metalloelastase (Homo sapiens) (P39900 106-470 limits assumed): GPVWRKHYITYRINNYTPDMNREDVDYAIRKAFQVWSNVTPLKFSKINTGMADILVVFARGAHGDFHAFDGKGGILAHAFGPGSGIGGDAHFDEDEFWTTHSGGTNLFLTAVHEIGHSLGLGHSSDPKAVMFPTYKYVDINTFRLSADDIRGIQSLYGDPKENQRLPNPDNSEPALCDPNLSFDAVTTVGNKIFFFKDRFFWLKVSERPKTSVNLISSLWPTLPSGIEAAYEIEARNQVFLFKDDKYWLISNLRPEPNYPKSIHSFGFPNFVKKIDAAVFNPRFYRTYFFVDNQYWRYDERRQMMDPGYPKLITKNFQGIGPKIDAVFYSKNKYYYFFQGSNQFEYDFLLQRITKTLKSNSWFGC
The target in a further assay is Stromelysin-2 (Homo sapiens, UniProt P09238). In words: Inhibition of human MMP10 catalytic domain using Mca-Pro-Leu-Gly-Leu-Dpa-Ala-Arg-NH2 fluorogenic substrate by spectrophotometric analysis.
Chain of Stromelysin-2 (P09238 whole entry, the tested form may be a part): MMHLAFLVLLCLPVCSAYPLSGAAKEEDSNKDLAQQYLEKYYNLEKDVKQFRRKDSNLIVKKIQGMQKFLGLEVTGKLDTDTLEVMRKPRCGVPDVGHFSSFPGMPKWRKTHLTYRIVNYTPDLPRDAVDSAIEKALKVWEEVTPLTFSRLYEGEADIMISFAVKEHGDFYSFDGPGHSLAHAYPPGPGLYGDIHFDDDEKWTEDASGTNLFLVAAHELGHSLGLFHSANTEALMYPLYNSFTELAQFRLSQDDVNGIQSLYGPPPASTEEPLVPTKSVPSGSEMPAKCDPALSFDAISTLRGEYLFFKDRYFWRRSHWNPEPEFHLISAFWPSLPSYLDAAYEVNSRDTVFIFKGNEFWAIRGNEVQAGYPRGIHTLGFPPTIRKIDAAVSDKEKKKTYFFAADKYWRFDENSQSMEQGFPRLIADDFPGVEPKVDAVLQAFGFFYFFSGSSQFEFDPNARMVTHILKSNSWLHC
The next assay deals with Collagenase 3 (Homo sapiens, UniProt P45452). In words: Inhibition of human MMP13 catalytic domain using Mca-Pro-Leu-Gly-Leu-Dpa-Ala-Arg-NH2 fluorogenic substrate by spectrophotometric analysis.
In assay [2] the target is 72 kDa type IV collagenase (Homo sapiens) (UniProt P08253). In words: Inhibition of human MMP2 catalytic domain using Mca-Pro-Leu-Gly-Leu-Dpa-Ala-Arg-NH2 fluorogenic substrate by spectrophotometric analysis.
Chain of 72 kDa type IV collagenase (Homo sapiens) (P08253 110-660 limits assumed): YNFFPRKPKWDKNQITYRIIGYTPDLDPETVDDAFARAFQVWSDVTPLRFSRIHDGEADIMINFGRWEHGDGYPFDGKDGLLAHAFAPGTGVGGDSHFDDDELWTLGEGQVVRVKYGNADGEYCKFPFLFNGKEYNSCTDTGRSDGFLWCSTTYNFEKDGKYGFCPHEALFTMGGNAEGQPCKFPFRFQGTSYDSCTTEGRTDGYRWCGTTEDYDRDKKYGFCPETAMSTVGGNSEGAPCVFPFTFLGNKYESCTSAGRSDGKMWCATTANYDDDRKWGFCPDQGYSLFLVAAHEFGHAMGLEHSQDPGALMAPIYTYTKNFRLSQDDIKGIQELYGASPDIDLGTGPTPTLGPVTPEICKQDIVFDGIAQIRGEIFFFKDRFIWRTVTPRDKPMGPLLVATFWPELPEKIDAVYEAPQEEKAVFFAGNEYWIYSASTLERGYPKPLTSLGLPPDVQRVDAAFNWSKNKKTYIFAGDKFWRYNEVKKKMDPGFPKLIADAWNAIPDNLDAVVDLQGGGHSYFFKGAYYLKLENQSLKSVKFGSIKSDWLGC

For `NC(=O)[C@H](CCC(=O)O)NC(=O)[C@H](CCC(=O)O)NC(=O)[C@H](Cc1cc(-c2ccc(-c3cccc(Cl)c3)cc2)no1)CP(=O)(O)c1ccc(Br)cc1`, the Ratio Ki in assay [1] came out at 1100. For the same molecule, the Ki at Stromelysin-2 amounted to 149 nM; on Collagenase 3, 139 nM.
Consider `NC(=O)[C@H](CCC(=O)O)NC(=O)[C@H](CCC(=O)O)NC(=O)[C@@H](CC(=O)NO)Cc1cc(-c2ccc(-c3cccc(Cl)c3)cc2)no1`, for which the Ki was 1.4 nM on Stromelysin-2 and 0.008 nM on Collagenase 3.
`NC(=O)[C@H](CCC(=O)O)NC(=O)[C@H](CCC(=O)O)NC(=O)[C@@H](CC(=O)O)Cc1cc(-c2ccc(-c3cccc(Cl)c3)cc2)no1`: the result (in assay [2]; on Collagenase 3) was Active. The Ratio Ki in assay [1] is 980.
